Measurements taken from patent publication US20240148821A1, “PHARMACEUTICAL USE OF CYCLIC PEPTIDE COMPOUND” (CHUGAI SEIYAKU KABUSHIKI KAISHA, priority 2021, published 2024).
Numbered stars: 1 amine (or outer) side, 2 acyl side, 3 side chain; on linkers, the order of the positions; unused ones are H or OH. Bridge positions count the residues as written; N and C are the ends. Square brackets hold non-standard residues; d marks the D form. Peptide text beside a SMILES is read from it. * marks the point of attachment. hPhe(3,5-F2-4-CF3) = N[C@@H](CCc1cc(F)c(C(F)(F)F)c(F)c1)C(=O)O; hPhe(3-Cl-4-CF3) = N[C@@H](CCc1ccc(C(F)(F)F)c(Cl)c1)C(=O)O; hPhe(3-F,4-CF3) = N[C@@H](CCc1ccc(C(F)(F)F)c(F)c1)C(=O)O; NMePhe(4-CF3) = CN[C@@H](Cc1ccc(C(F)(F)F)cc1)C(=O)O; NMeAbu(4,4,4-F3) = CN[C@@H](CC(F)(F)F)C(=O)O; NMePhe(4-Cl) = CN[C@@H](Cc1ccc(Cl)cc1)C(=O)O; NMePhe(4-Me) = CN[C@@H](Cc1ccc(C)cc1)C(=O)O; NMePhe(4-F) = CN[C@@H](Cc1ccc(F)cc1)C(=O)O; X79 = O=C([C@H](Cc1ccc(Cl)s1)N[*:1])[*:2]; NMeGly(cPent) = CN[C@H](C(=O)O)C1CCCC1; Phe(3-I) = N[C@@H](Cc1cccc(I)c1)C(=O)O; Pro(4,4-F2) = O=C(O)[C@@H]1CC(F)(F)CN1; NMeCha = CN[C@@H](CC1CCCCC1)C(=O)O; Hyp = O=C(O)[C@@H]1C[C@@H](O)CN1; NEtLeu = CCN[C@@H](CC(C)C)C(=O)O; NMeChg = CN[C@H](C(=O)O)C1CCCCC1; NMeI = CC[C@H](C)[C@H](NC)C(=O)O; NMeD = CN[C@@H](CC(=O)O)C(=O)O; NMeL = CN[C@@H](CC(C)C)C(=O)O; d(β3hA) = C[C@@H](N)CC(=O)O; Morpholide = C1CN(*)CCO1; NMeA = CN[C@@H](C)C(=O)O; NMeAib = CNC(C)(C)C(=O)O; Nle = CCCC[C@H](N)C(=O)O; Piperidide = C1CCN(*)CC1; Pra = C#CC[C@H](N)C(=O)O; Pyrrolidide = C1CCN(*)C1; Ac5c = NC1(C(=O)O)CCCC1; Aze = O=C(O)[C@@H]1CCN1; Sar = CNCC(=O)O

These compounds were tested on Human pancreatic cancer cell line AsPC-1 (G12D mutation Kras) (assay: AsPC-1 cell growth inhibition (AsPC-1 CGI)). Settings: read-out: AsPC-1 cell growth inhibition, 50% growth inhibitory concentration (IC50 value); 96 hours, CellTiter-Glo, values classified in ranges.
Assay type: cell-based
Description: Test compounds were serially dilated with dimethyl sulfoxide, and 200 nL was then dispensed to a U-bottom 96-well plate using Labcyte Echo. […] The cell suspension was dispensed to a. plate containing a test compound at 100 μL per well and incubated at 37° C. in a 5% carbon dioxide gas incubator. 96 hours later, 80 μL of CellTiter-Glo (Promega) was added to each well and fluorescence was measured.
For `CC[C@H](C)[C@@H]1NC(=O)[C@H](CC(F)(F)F)N(C)C(=O)C[C@@H](C(=O)N2CCCC2)N(C)C(=O)[C@H](C2CCCCC2)N(C)C(=O)C2(CCCC2)NC(=O)[C@@H]2CC(F)(F)CN2C(=O)[C@H](CCc2cc(F)c(C(F)(F)F)c(F)c2)NC(=O)CN(C)C(=O)[C@H](Cc2ccc(C)cc2)N(C)C(=O)CN(C)C(=O)CN(C)C1=O` [Compound 1317] ([NMeAbu(4,4,4-F3)]I[Sar][Sar][NMePhe(4-Me)][Sar][hPhe(3,5-F2-4-CF3)][Pro(4,4-F2)][Ac5c][NMeChg][NMeD]-Pyrrolidide; lactam N-11), the IC50 was at most 20 nM. Work on `CCCC[C@@H]1NC(=O)[C@H](Cc2ccc(Cl)s2)NC(=O)CN(C)C(=O)[C@H](Cc2ccc(Cl)cc2)N(C)C(=O)CN(C)C(=O)CN(C)C(=O)[C@H]([C@@H](C)CC)NC(=O)[C@H](CC(C)C)N(C)C(=O)C[C@@H](C(=O)N2CCCCC2)N(C)C(=O)[C@H](CC(C)C)NC(=O)C(C)(C)N(C)C1=O` [Compound 1318] ([NMeL]I[Sar][Sar][NMePhe(4-Cl)][Sar][X79][Nle][NMeAib]L[NMeD]-Piperidide; lactam N-11) yielded an IC50 of over 500 nM. `CC[C@H](C)[C@@H]1NC(=O)[C@H](CC(C)C)N(CC)C(=O)C[C@@H](C(=O)N(C)C)N(C)C(=O)[C@H](C2CCCC2)N(C)C(=O)C2(CCCC2)NC(=O)[C@@H]2CCCN2C(=O)[C@H](CCc2ccc(C(F)(F)F)c(F)c2)NC(=O)CN(C)C(=O)[C@H](CC2CCCCC2)N(C)C(=O)[C@@H]2CCN2C(=O)[C@H](C)N(C)C1=O` [Compound 1324] ([NEtLeu]I[NMeA][Aze][NMeCha][Sar][hPhe(3-F,4-CF3)]P[Ac5c][NMeGly(cPent)][NMeD]-NMe2; lactam N-11) gave an IC50 of at most 20 nM. For `C#CC[C@@H]1NC(=O)[C@H](Cc2cccc(I)c2)NC(=O)CN(C)C(=O)[C@H](Cc2ccc(F)cc2)N(C)C(=O)CN(C)C(=O)CN(C)C(=O)[C@H]([C@@H](C)CC)NC(=O)[C@H](CC(C)C)N(C)C(=O)C[C@@H](C(=O)N2CCCCC2)N(C)C(=O)[C@H](CC(C)C)NC(=O)C(C)(C)N(C)C1=O` [Compound 1327] ([NMeL]I[Sar][Sar][NMePhe(4-F)][Sar][Phe(3-I)][Pra][NMeAib]L[NMeD]-Piperidide; lactam N-11), the IC50 was over 500 nM. For `CC[C@H](C)[C@@H]1NC(=O)[C@H](CC(C)C)N(C)C(=O)C[C@@H](C)NC(=O)[C@H](C2CCCC2)N(C)C(=O)C2(CCCC2)NC(=O)[C@@H](C)NC(=O)[C@H](CCc2ccc(C(F)(F)F)c(Cl)c2)NC(=O)CN(C)C(=O)[C@H](Cc2ccc(C)cc2)N(C)C(=O)[C@@H]2CCN2C(=O)[C@H](C)N(C)C1=O` [Compound 1328] (cyclo([Ac5c][NMeGly(cPent)][d(β3hA)][NMeL]I[NMeA][Aze][NMePhe(4-Me)][Sar][hPhe(3-Cl-4-CF3)][dA])), the IC50 was over 500 nM. `CCO[C@@H]1C[C@H]2C(=O)NC3(CCCC3)C(=O)N(C)[C@@H]([C@@H](C)CC)C(=O)N(C)[C@H](C(=O)N3CCOCC3)CC(=O)N(C)[C@@H](CC(C)C)C(=O)N[C@@H]([C@@H](C)CC)C(=O)N(C)[C@@H](C)C(=O)N3CC[C@H]3C(=O)N(C)[C@@H](Cc3ccc(C(F)(F)F)cc3)C(=O)N(C)CC(=O)N[C@@H](CCc3ccc(C(F)(F)F)c(Cl)c3)C(=O)N2C1` [Compound 1330] ([NMeL]I[NMeA][Aze][NMePhe(4-CF3)][Sar][hPhe(3-Cl-4-CF3)][Hyp](Et)[Ac5c][NMeI][NMeD]-Morpholide; lactam N-11) was tested, and the IC50 was at most 20 nM. `CC[C@H](C)[C@@H]1NC(=O)[C@H](CC(C)C)N(C)C(=O)C[C@@H](C(=O)N2CCOCC2)N(C)C(=O)[C@H](C2CCCCC2)N(C)C(=O)C2(CCCC2)NC(=O)[C@@H]2CCCN2C(=O)[C@H](CCc2ccc(C(F)(F)F)c(Cl)c2)NC(=O)CN(C)C(=O)[C@H](CC2CCCCC2)N(C)C(=O)CN(C)C(=O)CN(C)C1=O` [Compound 1333] ([NMeL]I[Sar][Sar][NMeCha][Sar][hPhe(3-Cl-4-CF3)]P[Ac5c][NMeChg][NMeD]-Morpholide; lactam N-11) showed an IC50 of at most 20 nM. `CC[C@H](C)[C@@H]1NC(=O)[C@H](CC(C)C)N(C)C(=O)C[C@@H](C(=O)N2CCOCC2)N(C)C(=O)[C@H](C2CCCCC2)N(C)C(=O)C2(CCCC2)NC(=O)[C@@H]2CC(F)(F)CN2C(=O)[C@H](CCc2cc(F)c(C(F)(F)F)c(F)c2)NC(=O)CN(C)C(=O)[C@H](CC2CCCCC2)N(C)C(=O)CN(C)C(=O)CN(C)C1=O` [Compound 1337] ([NMeL]I[Sar][Sar][NMeCha][Sar][hPhe(3,5-F2-4-CF3)][Pro(4,4-F2)][Ac5c][NMeChg][NMeD]-Morpholide; lactam N-11) gave an IC50 of at most 20 nM. With `CC[C@H](C)[C@@H]1NC(=O)[C@H](CC(C)C)N(C)C(=O)C[C@@H](C(=O)N2CCCC2)N(C)C(=O)[C@H](C2CCCC2)N(C)C(=O)C2(CCCC2)NC(=O)[C@@H]2CCCN2C(=O)[C@H](CCc2cc(F)c(C(F)(F)F)c(F)c2)NC(=O)CN(C)C(=O)[C@H](CC2CCCCC2)N(C)C(=O)CN(C)C(=O)CN(C)C1=O` [Compound 1342] ([NMeL]I[Sar][Sar][NMeCha][Sar][hPhe(3,5-F2-4-CF3)]P[Ac5c][NMeGly(cPent)][NMeD]-Pyrrolidide; lactam N-11) the IC50 was at most 20 nM.
